Assay results taken from PubChem BioAssay AID2744 (NMMLSC, 2010).
The source made the active and inactive calls.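 Rule for the calls: active = fitted half-maximal concentration for changing reporter fluorescence at or below a set limit; inactive = the rest.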

Biological target: Citrate synthase, peroxisomal (Saccharomyces cerevisiae (strain ATCC 204508 / S288c)) (UniProt P08679)
Assay: CIT2-GFP expression modulators in yeast, dose response, flow cytometry, MLPCN hits (AID 2744)
Conditions: S. cerevisiae CIT2-GFP strain, 3 h; for GFP fluorescence, higher = induction: at 33 µM (top of the series); for EC50: flow cytometry fluorescence

Chain of Citrate synthase, peroxisomal (Saccharomyces cerevisiae (strain ATCC 204508 / S288c)) (P08679 whole entry, looked up): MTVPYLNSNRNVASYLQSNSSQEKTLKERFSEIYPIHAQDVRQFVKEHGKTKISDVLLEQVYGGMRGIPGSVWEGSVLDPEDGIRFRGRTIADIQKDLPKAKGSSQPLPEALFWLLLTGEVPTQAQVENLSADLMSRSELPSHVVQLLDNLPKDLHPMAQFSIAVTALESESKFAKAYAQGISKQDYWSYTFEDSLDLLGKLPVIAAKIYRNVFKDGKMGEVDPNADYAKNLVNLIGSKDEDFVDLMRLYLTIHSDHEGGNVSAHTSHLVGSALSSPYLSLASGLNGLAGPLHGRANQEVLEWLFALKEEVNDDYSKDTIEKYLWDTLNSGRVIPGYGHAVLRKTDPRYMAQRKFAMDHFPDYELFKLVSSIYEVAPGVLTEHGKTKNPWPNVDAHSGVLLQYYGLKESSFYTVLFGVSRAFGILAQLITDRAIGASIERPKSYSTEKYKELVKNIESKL

Compound | GFP fluorescence, higher = induction | EC50 [µM]
O=C(O)c1ccccc1SC1CC(=O)N(c2ccc3c(c2)OCO3)C1=O (centres undefined) | inactive | 
O=C(Nc1nnc(-c2ccc(Cl)cc2)o1)c1ccccc1Br | inactive | 
O=[N+]([O-])c1cc(F)c2cccnc2c1O | inactive | 
O=C(Nc1ccc(N2CCOCC2)cc1)C1CCN(S(=O)(=O)c2ccc3c(c2)OCCO3)CC1 | inactive | 
CCC(=O)Nc1ccc(NC(=O)c2cc3ccccc3o2)cc1 | inactive | 
Cc1cccc(OCCN2CSC(=S)N(C)C2)c1 | inactive | 
COc1cccc(C(=O)Nc2nnc(-c3ccc(Cl)cc3)o2)c1 | inactive | 
CCOC(=O)CS(=O)(=O)c1nc(-c2ccccc2)cc(C(F)(F)F)n1 | inactive | 
O=C(Nc1ccc(NC(=O)c2cc3ccccc3o2)cc1)c1ccc2c(c1)OCCO2 | inactive | 
O=C(COc1ccccc1)NNC(=S)NC(=O)c1ccc(Cl)cc1Cl | inactive | 
CC(=O)Oc1cccc(N2C(=O)c3cccc4c([N+](=O)[O-])ccc(c34)C2=O)c1 | inactive | 
Cc1cc(C(=O)COC(=O)c2ccc[nH]c2=O)c(C)n1-c1ccccc1F | inactive | 
O=[N+]([O-])c1cc(O)c2ncccc2c1 | inactive | 
Oc1ccc(Br)cc1/C=N/Nc1ccccn1 | inactive | 
O=C(NOC(=O)c1ccccc1)c1ccccc1 | inactive | 
CCCCCCCCC/C(=N\O)c1ccccn1 | inactive | 
Cc1ccc2[nH]cc(/C=C/c3cc[n+](C)cc3)c2c1 | inactive | 
CC(Oc1cccc(Cl)c1)C(=O)Nc1nc(-c2ccccn2)cs1 (centres undefined) | inactive | 
Nc1nc2ncc(CNc3ccc(C(=O)N[C@@H](CCC(=O)O)C(=O)O)cc3)nc2c(=O)[nH]1 | inactive | 
Cc1[nH]c2ccccc2c1C(=O)COC(=O)c1ccc([N+](=O)[O-])s1 | inactive | 
O=c1[nH]c(-c2ccc(Cl)cc2)cs1 | inactive | 
COc1cc(/C=C2/C(=O)ON=C2c2ccccc2)ccc1O | inactive | 
c1ccc(-c2csc(Nc3cccnc3)n2)nc1 | inactive | 
COc1ccc(C(=O)/C=C2/C(=O)Nc3ccccc32)cc1 | inactive | 

Compound | GFP fluorescence, higher = induction | EC50 [µM]
COc1cc(N=c2ssnc2Cl)c(OC)cc1Cl | inactive | 
CC(C)(C)n1nc(-c2ccc(F)cc2)c2c(N)ncnc21 | inactive | 
Cc1ccc(NC(=O)c2cc(N3C(=O)C=CC3=O)ccc2N2CCOCC2)cc1Cl | inactive | 
C#CCOCCOCCOCCNc1nc(N2CCN(C(=O)CCCCCCCCCCNC(=O)[C@H](CCCCN)n3cc(CCCC(=O)O)nn3)CC2)nc(N2CCN(C(=O)CCCCCCCCCCNC(=O)[C@H](CCCN=C(N)N)n3cc(C[C@@H](C)CC)nn3)CC2)n1 | inactive | 
CCCS(=O)(=O)c1nnnn1-c1cccc(OC)c1 | inactive | 
COc1ccc([C@@]2(C(C)C)ON(c3ccccc3C(F)(F)F)C2=O)cc1 | inactive | 
O=c1cc(CSc2ccc(Cl)cc2)nc(-c2ccccn2)[nH]1 | inactive | 
O=C(OCC(=O)N1CCN(C(=O)c2ccco2)CC1)c1cc(-c2ccccc2)nc2ccccc12 | inactive | 
O=C(/C=C/c1ccccn1)c1cc(Br)ccc1O | inactive | 
O=C1ON=C(c2ccccc2)/C1=C\c1ccco1 | inactive | 
Cc1cc(S(=O)(=O)ON2C(=O)c3ccccc3C2=O)ccc1F | inactive | 
Cc1ccc(O)c(N=Nc2nccs2)c1 |  | 11.3
O=C1NC(=O)N(Cc2ccc(F)cc2)C(=O)/C1=C/c1cccs1 | inactive | 
O=C(O)C1Sc2[nH]c(=O)sc2C2c3cc(Br)ccc3OC(=O)C12 (centres undefined) | inactive | 
CCc1nc2ccccc2c(=O)n1NC(=O)c1c(O)c2cccc3c2n(c1=O)CCC3 | inactive | 
COc1ccc2c(c1)S/C(=C\C(=O)c1ccncc1)N2C | inactive | 
CC(=O)Oc1ccc(N2C(=O)C3C4C=CC(O4)C3C2=O)cc1 (centres undefined) | inactive | 
CCN(CC)C(=S)SSC(=S)N(CC)CC | inactive | 
O=C(Nc1cccc(C(F)(F)F)c1)Oc1ccc(Cl)c2cccnc12 | inactive | 
Cc1ccc(S(=O)(=O)ON2C(=O)c3ccccc3C2=O)c(C)c1 | inactive | 
CC1=C(C)/C(=N\OS(=O)(=O)c2ccc(C)cc2)C=CC1=O | inactive | 
CN1CCN(C(c2ccc(C(F)(F)F)cc2)c2ccc3cccnc3c2O)CC1 (centres undefined) | inactive | 
O=C(/C=C/c1ccccn1)c1ccc(Br)cc1O | inactive | 
COc1ccc(OCC(=O)NNC(=S)NC(=O)C2CCCCC2)cc1 | inactive | 

Compound | GFP fluorescence, higher = induction | EC50 [µM]
O=[N+]([O-])c1ccc(Sc2nc3ccccc3o2)c([N+](=O)[O-])c1 | inactive | 
Cc1[nH][nH]c(=O)c1C(c1ccc(-c2ccc(Cl)c(Cl)c2)o1)c1c(C)[nH][nH]c1=O | inactive | 
COc1ccc(/C=C/C(=O)NC(=S)NNC(=O)c2cnccn2)cc1 | inactive | 
Cc1[nH]n(-c2ncc(-c3ccccc3)s2)c(=O)c1C(c1ccc(Cl)cc1)C(C#N)C#N (centres undefined) | inactive | 
COc1ccccc1N=Nc1ccc(O)c2ncccc12 | inactive | 
O=S(=O)(c1ccccc1)c1ccc(C(F)(F)F)cn1 | inactive | 
Cc1cccc(NC(c2ccc(C)s2)c2ccc3ccc(C)nc3c2O)n1 (centres undefined) | inactive | 
Oc1c(Br)cc(Br)cc1C=Nc1ccc2c(c1)OCO2 | inactive | 
CCN1/C(=C/c2ccc3cc(C)ccc3[n+]2CC)Sc2ccc3sccc3c21 | inactive | 
Cc1ccc(NC(=O)c2cc(N3C(=O)C=CC3=O)ccc2Cl)cc1C | inactive | 
O=C(O)c1ccc2c(c1)C(=O)/C(=C/c1ccccc1)C2=O | inactive | 
O=C(O)c1ccn2c(C(=O)c3ccccc3)c(-c3ccccc3)cc2c1 | inactive | 
N/C(Cc1ccc(Cl)cc1)=N\OC(=O)c1ccccc1 |  | 3.35
Cc1cc(C)c(C)c(S(=O)(=O)ON2C(=O)c3ccccc3C2=O)c1C | inactive | 
CCc1cc(C(=O)Nc2nc(-c3ccccn3)cs2)sc1C | inactive | 
Cc1ccc(N2C(=O)CC(Sc3ncn[nH]3)C2=O)cc1C (centres undefined) | inactive | 
Cc1ccc(C(=O)/C=C/C(=O)c2ccc(C)cc2)cc1 | inactive | 
Cc1cc(O)c(C(=O)/C=C/c2c(F)c(F)c(F)c(F)c2F)c(=O)o1 | inactive | 
O=C(/C=C/c1ccccc1)NC(=S)NNC(=O)Cc1cccs1 | inactive | 
CCC1(c2ccccc2)ON(c2c(Br)cccc2Br)C1=O (centres undefined) | inactive | 
Nc1ccc(Br)c2c1C(=O)c1ccccc1C2=O | inactive | 
Nc1nc(N)c2nc(CNc3ccc(C(=O)NC(CCC(=O)O)C(=O)O)cc3)cnc2n1 (centres undefined) | inactive | 
CCCc1ccc(OCC(=O)NNC(=S)NC(=O)c2ccco2)cc1 | inactive | 
CC(=O)OC[C@]12CC[C@H]3[C@@](C)(CC[C@H]4C(C)(C)CCC[C@]34C)[C@@H]1C[C@H](C1=CC(=O)O[C@@H]1OC(C)=O)O2 | inactive | 

Compound | GFP fluorescence, higher = induction | EC50 [µM]
C#CCOc1c(Br)cc(/C=C2/C(=O)ON=C2C)cc1OC | inactive | 
N/C(Cc1ccc(Cl)cc1Cl)=N\OC(=O)c1cccs1 |  | 1.48
CCCCc1ccc(/C=C2/C(=O)ON=C2c2ccccc2)s1 | inactive | 
O=C1c2cccc3c([N+](=O)[O-])ccc(c23)C(=O)N1CCc1ccccn1 | inactive | 
CCCCCn1c(=O)c(C(=O)Nc2nc3ccccc3[nH]2)c(O)c2ccccc21 | inactive | 
O=C(/C=C/c1ccccc1[N+](=O)[O-])c1ccccc1Br | inactive | 
O=[N+]([O-])c1ccc(O)c(/C=N/Nc2ccccn2)c1 | inactive | 
Cc1c(N2C(=O)/C(=C\c3ccccc3O)SC2=S)c(=O)n(-c2ccccc2)n1C | inactive | 
Cc1ccc(-c2nc(N)c3c(-c4ccc(C)cc4)nn(C(C)(C)C)c3n2)cc1 | inactive | 
CN(C)c1ccc(N=Cc2nc(-c3ccccc3)oc2OC(=O)c2cccc(Cl)c2)cc1 | inactive | 
[O-][n+]1cccc2c(Br)cc(Br)c(O)c21 | inactive | 
Cc1ccc(NC(=O)CCc2ccccc2)cc1S(=O)(=O)N1CCOCC1 | inactive | 
COc1ccccc1C(=O)NNC(=S)NC(=O)c1ccco1 | inactive | 
N#C/C(=C\c1ccccn1)c1nc2ccccc2s1 | inactive | 
O=[N+]([O-])c1ccc(O)c2ncccc12 | inactive | 
CCCCC(=O)NNC(=S)NC(=O)c1ccc(C)cc1 |  | 3.39
NC(=O)COc1ccc(C(=O)/C=C2/C(=O)Nc3ccccc32)cc1 | inactive | 
O=C(Nc1ccc(O)cc1)C1CCCN1S(=O)(=O)c1ccc(F)cc1 (centres undefined) | inactive | 
O=c1/c(=C/c2cccc3ccccc23)sc2ncnn12 | inactive | 
CCOc1ccc(NC2=C(Cl)C(=O)N(Cc3ccccc3)C2=O)cc1 | inactive | 
Clc1cnc(N/N=C/c2cccs2)c(Cl)c1 | inactive | 
O=[N+]([O-])c1cc(CN2CCN(c3ccccc3)CC2)c(O)c2ncccc12 | inactive | 
